This note sets out measurements from the supplement of paper PMC10412643.

Conditions in all cases: CAMHB, incubation time 20 h
Compound in assay [1]: CC(C)(O/N=C(\C(=O)N[C@@H]1C(=O)N2C(C(=O)[O-])=C(C[N+]3(CCNC(=O)c4ccc(O)c(O)c4Cl)CCCC3)CS[C@H]12)c1csc(N)n1)C(=O)O [cefiderocol]
Compound in assay [2]: CC(C)(O/N=C(\C(=O)N[C@@H]1C(=O)N2C(C(=O)[O-])=C(C[n+]3ccccc3)CS[C@H]12)c1csc(N)n1)C(=O)O [ceftazidime]
Compound in assay [3]: C[C@@H](O)[C@H]1C(=O)N2C(C(=O)O)=C(S[C@@H]3CN[C@H](C(=O)N(C)C)C3)[C@H](C)[C@H]12 [meropenem]

Turning to B. vietnamiensis VC11431, the MIC is 1 µg/mL in assay [1] (avibactam 0 µg/mL); 0.125 µg/mL in assay [1] (avibactam 8 µg/mL); 32 µg/mL in assay [2] (avibactam 0 µg/mL); 2 µg/mL in assay [2] (avibactam 8 µg/mL); 16 µg/mL in assay [3] (avibactam 0 µg/mL); 1 µg/mL in assay [3] (avibactam 8 µg/mL).

B. multivorans 130034: the MIC turned out to be 0.125 µg/mL in assay [1] (avibactam 0 µg/mL); 0.125 µg/mL in assay [1] (avibactam 8 µg/mL); 8 µg/mL in assay [2] (avibactam 0 µg/mL); 8 µg/mL in assay [2] (avibactam 8 µg/mL); 8 µg/mL in assay [3] (avibactam 0 µg/mL); 4 µg/mL in assay [3] (avibactam 8 µg/mL).

As for S. maltophilia D457, the MIC was 0.125 µg/mL in assay [1] (avibactam 0 µg/mL); 0.125 µg/mL in assay [1] (avibactam 8 µg/mL); 1 µg/mL in assay [2] (avibactam 0 µg/mL); 1 µg/mL in assay [2] (avibactam 8 µg/mL); 32 µg/mL in assay [3] (avibactam 0 µg/mL); 32 µg/mL in assay [3] (avibactam 8 µg/mL).

As to B. multivorans VC19694, the MIC is 1 µg/mL in assay [1] (avibactam 0 µg/mL); 1 µg/mL in assay [1] (avibactam 8 µg/mL); 1 µg/mL in assay [2] (avibactam 8 µg/mL); 8 µg/mL in assay [3] (avibactam 0 µg/mL); 4 µg/mL in assay [3] (avibactam 8 µg/mL).

With S. maltophilia 20NC580771, the MIC in assay [1] (avibactam 0 µg/mL) was 0.25 µg/mL; in assay [1] (avibactam 8 µg/mL) it was 0.25 µg/mL; in assay [2] (avibactam 0 µg/mL), greater than 128 µg/mL; in assay [2] (avibactam 8 µg/mL), greater than 128 µg/mL; in assay [3] (avibactam 0 µg/mL) it was greater than 64 µg/mL; in assay [3] (avibactam 8 µg/mL), greater than 64 µg/mL.

For the test system B. dolosa AU0645, the MIC in assay [1] (avibactam 0 µg/mL) was greater than 4 µg/mL; in assay [1] (avibactam 8 µg/mL) it was greater than 4 µg/mL; in assay [2] (avibactam 0 µg/mL), greater than 128 µg/mL; in assay [2] (avibactam 8 µg/mL), 8 µg/mL; in assay [3] (avibactam 0 µg/mL), 16 µg/mL; in assay [3] (avibactam 8 µg/mL) it was 2 µg/mL.

As to P. aeruginosa 71, the minimum inhibitory concentration (MIC) was 4 µg/mL in assay [1] (avibactam 0 µg/mL); 4 µg/mL in assay [1] (avibactam 8 µg/mL); greater than 128 µg/mL in assay [2] (avibactam 0 µg/mL); 4 µg/mL in assay [2] (avibactam 8 µg/mL); 32 µg/mL in assay [3] (avibactam 0 µg/mL); 4 µg/mL in assay [3] (avibactam 8 µg/mL).

For the test system B. multivorans V1120157, the minimum inhibitory concentration (MIC) in assay [1] (avibactam 0 µg/mL) came to 0.125 µg/mL; in assay [1] (avibactam 8 µg/mL) it was 0.125 µg/mL; in assay [2] (avibactam 0 µg/mL) it was 2 µg/mL; in assay [2] (avibactam 8 µg/mL), 2 µg/mL; in assay [3] (avibactam 0 µg/mL), 1 µg/mL; in assay [3] (avibactam 8 µg/mL), 1 µg/mL.

S. maltophilia K279a: the MIC in assay [1] (avibactam 0 µg/mL) came to 0.125 µg/mL; in assay [1] (avibactam 8 µg/mL), 0.125 µg/mL; in assay [2] (avibactam 0 µg/mL), 2 µg/mL; in assay [2] (avibactam 8 µg/mL), 1 µg/mL; in assay [3] (avibactam 0 µg/mL) it was 2 µg/mL; in assay [3] (avibactam 8 µg/mL), 2 µg/mL.

Regarding B. multivorans VC9825, the MIC in assay [1] (avibactam 0 µg/mL) turned out to be 0.25 µg/mL; in assay [1] (avibactam 8 µg/mL), 0.125 µg/mL; in assay [2] (avibactam 0 µg/mL) it was 2 µg/mL; in assay [2] (avibactam 8 µg/mL), 2 µg/mL; in assay [3] (avibactam 0 µg/mL), 2 µg/mL; in assay [3] (avibactam 8 µg/mL) it was 1 µg/mL.

Consider B. cenocepacia F3071909, for which the MIC is greater than 4 µg/mL in assay [1] (avibactam 0 µg/mL); greater than 4 µg/mL in assay [1] (avibactam 8 µg/mL); 32 µg/mL in assay [2] (avibactam 0 µg/mL); 32 µg/mL in assay [2] (avibactam 8 µg/mL); 16 µg/mL in assay [3] (avibactam 0 µg/mL); 2 µg/mL in assay [3] (avibactam 8 µg/mL).

Consider B. gladioli VC14812, for which the MIC in assay [1] (avibactam 0 µg/mL) is 0.5 µg/mL; in assay [1] (avibactam 8 µg/mL), 0.5 µg/mL; in assay [2] (avibactam 0 µg/mL), 32 µg/mL; in assay [2] (avibactam 8 µg/mL), 16 µg/mL; in assay [3] (avibactam 0 µg/mL), 8 µg/mL; in assay [3] (avibactam 8 µg/mL), 8 µg/mL.

With B. dolosa AU6940, the MIC in assay [1] (avibactam 0 µg/mL) is 2 µg/mL; in assay [1] (avibactam 8 µg/mL) it was 2 µg/mL; in assay [2] (avibactam 0 µg/mL), 16 µg/mL; in assay [2] (avibactam 8 µg/mL), 16 µg/mL; in assay [3] (avibactam 0 µg/mL), 32 µg/mL; in assay [3] (avibactam 8 µg/mL), 2 µg/mL.

For S. maltophilia 21NE928511, the MIC was greater than 4 µg/mL in assay [1] (avibactam 0 µg/mL); greater than 4 µg/mL in assay [1] (avibactam 8 µg/mL); greater than 128 µg/mL in assay [2] (avibactam 0 µg/mL); greater than 128 µg/mL in assay [2] (avibactam 8 µg/mL); greater than 64 µg/mL in assay [3] (avibactam 0 µg/mL); greater than 64 µg/mL in assay [3] (avibactam 8 µg/mL).

For the test system B. cenocepacia 134991, the MIC in assay [1] (avibactam 0 µg/mL) is greater than 4 µg/mL; in assay [1] (avibactam 8 µg/mL), greater than 4 µg/mL; in assay [2] (avibactam 0 µg/mL), 8 µg/mL; in assay [2] (avibactam 8 µg/mL), 8 µg/mL; in assay [3] (avibactam 0 µg/mL), 2 µg/mL; in assay [3] (avibactam 8 µg/mL), 2 µg/mL.

Consider S. maltophilia 05 41846, for which the MIC is 0.5 µg/mL in assay [1] (avibactam 0 µg/mL); 0.5 µg/mL in assay [1] (avibactam 8 µg/mL); 4 µg/mL in assay [2] (avibactam 0 µg/mL); 4 µg/mL in assay [2] (avibactam 8 µg/mL); greater than 64 µg/mL in assay [3] (avibactam 0 µg/mL); greater than 64 µg/mL in assay [3] (avibactam 8 µg/mL).
